Data from patent US20070010548A1, “Compounds having inhibitive activity of phosphatidylinositol 3-kinase and methods of use thereof” (ZENTARIS GmbH, priority 2003, published 2007).
Where two headings read alike, the source gives them in different places.

Key:
PI 3-K alpha = target: T1, PI 3-K alpha (Homo sapiens, UniProt P42336); test: PI 3-K activity assay, IC50 determination (AlphaScreen luminescent or Fluorescence Polarization); format: biochemical; settings: inhibition of enzyme activity in vitro
T1 construct: made in house; host or cells: Sf9 cells, baculovirus expression system; constructs from the lab of Dr. Alex Toker, Harvard University
T1 sequence (P42336 whole entry, species assumed): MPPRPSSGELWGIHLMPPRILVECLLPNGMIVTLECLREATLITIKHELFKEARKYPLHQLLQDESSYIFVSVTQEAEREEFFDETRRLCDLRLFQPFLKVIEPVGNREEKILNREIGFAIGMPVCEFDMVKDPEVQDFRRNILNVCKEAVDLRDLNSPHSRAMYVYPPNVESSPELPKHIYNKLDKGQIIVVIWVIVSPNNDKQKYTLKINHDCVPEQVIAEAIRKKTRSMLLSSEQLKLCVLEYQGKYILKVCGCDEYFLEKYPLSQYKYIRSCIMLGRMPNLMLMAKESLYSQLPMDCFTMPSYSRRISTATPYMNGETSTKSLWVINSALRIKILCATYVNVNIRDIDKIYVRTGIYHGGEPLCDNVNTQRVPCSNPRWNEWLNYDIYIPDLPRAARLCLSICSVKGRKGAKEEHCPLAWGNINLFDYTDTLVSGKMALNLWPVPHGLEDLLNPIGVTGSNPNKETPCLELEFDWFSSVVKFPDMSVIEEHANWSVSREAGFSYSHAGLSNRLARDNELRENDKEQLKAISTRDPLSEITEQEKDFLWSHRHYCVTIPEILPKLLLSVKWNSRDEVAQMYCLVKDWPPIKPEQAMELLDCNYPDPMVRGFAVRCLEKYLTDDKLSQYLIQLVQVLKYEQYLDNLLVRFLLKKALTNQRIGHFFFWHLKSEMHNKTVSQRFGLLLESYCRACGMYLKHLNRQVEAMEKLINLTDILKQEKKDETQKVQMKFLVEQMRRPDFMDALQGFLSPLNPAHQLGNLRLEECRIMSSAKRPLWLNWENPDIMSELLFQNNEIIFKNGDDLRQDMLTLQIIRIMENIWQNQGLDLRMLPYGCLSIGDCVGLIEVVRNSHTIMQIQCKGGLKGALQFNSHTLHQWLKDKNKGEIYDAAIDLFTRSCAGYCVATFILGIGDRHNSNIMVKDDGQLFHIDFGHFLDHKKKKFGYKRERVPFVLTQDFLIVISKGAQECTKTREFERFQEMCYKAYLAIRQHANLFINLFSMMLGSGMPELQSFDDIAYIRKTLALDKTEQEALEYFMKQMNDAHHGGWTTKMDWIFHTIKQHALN
T1 sequence (P27986 whole entry partner, species assumed): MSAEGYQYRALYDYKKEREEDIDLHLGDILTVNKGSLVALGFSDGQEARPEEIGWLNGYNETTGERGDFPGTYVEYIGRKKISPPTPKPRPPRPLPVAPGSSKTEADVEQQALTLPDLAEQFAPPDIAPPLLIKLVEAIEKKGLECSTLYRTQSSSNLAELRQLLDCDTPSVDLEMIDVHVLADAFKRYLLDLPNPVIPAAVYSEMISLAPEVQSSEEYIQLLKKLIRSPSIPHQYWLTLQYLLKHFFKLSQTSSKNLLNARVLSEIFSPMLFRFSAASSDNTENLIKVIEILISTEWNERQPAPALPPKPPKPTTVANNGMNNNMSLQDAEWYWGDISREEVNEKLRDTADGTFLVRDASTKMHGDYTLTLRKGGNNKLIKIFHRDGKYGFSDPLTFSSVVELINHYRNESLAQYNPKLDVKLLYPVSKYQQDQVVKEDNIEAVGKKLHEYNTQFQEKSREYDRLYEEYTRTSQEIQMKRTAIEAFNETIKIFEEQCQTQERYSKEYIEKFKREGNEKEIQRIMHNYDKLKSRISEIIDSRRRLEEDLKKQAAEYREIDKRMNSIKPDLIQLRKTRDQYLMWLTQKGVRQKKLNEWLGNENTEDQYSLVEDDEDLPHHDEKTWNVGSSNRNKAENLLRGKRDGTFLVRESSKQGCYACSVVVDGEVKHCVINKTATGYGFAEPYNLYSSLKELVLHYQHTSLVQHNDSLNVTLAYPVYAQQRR
Description: Recombinant heterodimeric PI 3-K alpha, consisting of a p110 catalytic subunit and a GST-tagged p85 regulatory subunit, was expressed in Sf9 cells using a baculoviras expression system. Expression constructs were obtained from the lab of Dr. Alex Toker, Harvard University. The method is well known to those skilled in the art and is also described in Stoyanov et al., Science 269, 690-693 (1995).and Stoyanova et al., Biochem. J. 324 :489-495. (1997).
PI 3-kinase reactions were performed in a reaction buffer containing 5 mM HEPES, pH 7, 2.5 mM MgCl2, and 25 μM ATP, containing 50 ng of recombinant PI 3-K with 10 picomoles of diC8 PI(4,5)P2 (Echelon Biosciences) as the substrate. The reactions were allowed to proceed at room temperature for 1-3 hours, then quenched by the addition of EDTA to a final concentration of 10 mM. The final reaction volumes were 10 μl. The compounds to be tested for inhibition were added to a final concentration of 1 μM from stocks in DMSO. The final concentration of DMSO was 1%.
Conversion of the substrate to PI(3,4,5)P3 was determined using a competition assay using Amplified Luminescent Proximity Homogeneous Assay (ALPHA®) technology developed by Perkin Elmer. 0.25 picomoles of recombinant GST-Grp1-PH domain protein and 0.25 picomoles of biotinylated diC6 PI(3,4,5)P3 (Echelon Biosciences) were added to each reaction mixture. Donor and Acceptor beads from the AlphaScreen® GST (Glutathione-S-Transferase) Detection Kit (PerkinElmer) were added to a final concentration of 20 μg/ml. The final volume was 25 μl. The reactions were incubated at 37° C. for two hours, and the luminescent signal was read on a Fusion α microplate reader. Percent inhibition of enzyme activity was determined by comparison to no enzyme (100% inhibition) and DMSO alone (0% inhibition) controls.
An alternate method used for detecting substrate conversion to PI(3,4,5)P3 was a competitive Fluorescence Polarization assay. 125 picomoles of recombinant GST-Grp1-PH domain protein and 0.25 picomoles of TAMRA-I(1,3,4,5)P4 (Echelon Biosciences) were added to each reaction mixture The final volume was 25 μl. Polarization values were measured on a microplate reader using 550 nm excitation/580 nm polarizing emission filters. BODIPY-TMR-I(1,3,4,5)P4 or BODIPY-TMR-PI(3,4,5)P3 could substitute as the fluorescent tracers in this assay. Percent inhibition of enzyme activity was determined by comparison to no enzyme (100% inhibition) and DMSO alone (0% inhibition) controls.
A library of potential PI 3-K inhibitors was tested for activity against PI 3-K alpha in the following manner. From the active compounds identified, twelve were selected as representatives from different chemical groups present in the library and subjected to further analysis. IC50 values were determined for the selected compounds of the present invention. Enzyme activity assays were performed as previously described, in the presence of a range of compound concentrations to allow determination of IC50 values. Enzyme activity and percent inhibition was determined using the AlphaScreen® luminescent assay or a Fluorescence Polarization assay as previously described. These inhibitors may also show activity against other PI 3-K isoforms, including PI 3-K beta, gamma, and delta.

[1] = tested on: tumor cells altered in PI 3-K/PTEN; test: Cellular growth inhibition assays on tumor cells altered in PI 3-K/PTEN; format: cell-based; settings: for IC50: approximate, read-out: Approx. mIC50 in cellular assays
Description: (§1) The ovarian cancer cell line SKOV3 is not altered in PI 3-K signaling and should be less sensitive to the anti-proliferative effects produced by treatment with PI 3-K inhibitors, while the OVCAR3 cell line, which is altered in PI 3-K signaling, via amplification of PI 3-K activity, should be sensitive. SKOV3 cells were seeded in 96-well cell culture plates (Greiner) at a density of 20,000 cells per well in McCoys 5A media (GibcoBRL) with 10% fetal calf serum and 20 mM L-glutamine. OVCAR3 cells were seeded at a density of 15,000 cells per well in RPMI 1640 media (GibcoBRL) containing 20 mM 1-glutamine, 0.01 ng/ml bovine insulin, 10 mM Hepes pH 7.4, 1 mM sodium pyruvate, 2.5 g/L glucose, and 20% fetal calf serum. After 24 hours, compounds were added to cell media to a final concentration of 1 μM, and the cells were grown in the presence of the compounds for 48 hours, in media containing 0.5% fetal calf serum. Viability was determined using a MTT cell proliferation assay (R and D Systems) and comparison to DMSO alone controls (100% viability). Compounds which result in reduced viability may act either by inhibiting cell proliferation or by inducing apoptosis (programmed cell death).
Selected compounds were evaluated against paired ovarian cancer cell lines at a range of concentrations to determine effective concentrations for growth inhibition.
MDA-MB-468 and MDA-MB-231 cells were seeded in 96-well cell culture plates (Greiner) at a density of 20,000 cells per well in RMPI media (GibcoBRL) with 10% fetal calf serum and 20 mM L-glutamine. After 24 hours, compounds were added to cell media to a final concentrations ranging from 10 nM to 100 μM, and the cells were grown in the presence of the compounds for 48 hours in RMPI media containing 0.5% fetal calf serum and 20 mM L-glutamine. Viability was determined using a MTT cell proliferation assay (R and D Systems) and comparison to DMSO alone controls (100% viability). Compounds which result in reduced viability may act either by inhibiting cell proliferation or by inducing apoptosis (programmed cell death). […] Selected compounds were evaluated against the paired breast cancer cell lines at a range of concentrations to determine effective concentrations for growth inhibition.
Table 3 summarizes the data for several compounds of this structural group, including the IC50 for inhibition of enzyme activity in vitro, cellular mIC50 and anti-proliferative activity against tumor cells altered in PI 3-K mediated signaling, and effects on cellular levels of phospho-Akt.

OVCAR3 cells = test: MTT cell proliferation/viability assay, OVCAR3 ovarian cancer cells; format: cell-based; settings: Homo sapiens
Description: as §1
(§2) Many of these also show similar selective effects on cell growth. Table 2 summarizes the results of two separate cell proliferation experiments for selected compounds of the present invention.

SKOV3 cells = test: MTT cell proliferation/viability assay, SKOV3 ovarian cancer cells; format: cell-based; settings: Homo sapiens
Description: as §1, §2

[2] = OVCAR-3, 48 hours, MTT, DMSO alone controls = 100% viability, Trial 1, read-out: Trial 1 OVCAR3 (viability)
[3] = OVCAR-3, 48 hours, MTT, DMSO alone controls = 100% viability, Trial 2, read-out: Trial 2 OVCAR3 (viability)
[4] = OVCAR-3, average of Trial 1 and Trial 2, 48 hours, read-out: average OVCAR-3 (viability)
[5] = SK-OV-3, 48 hours, MTT, DMSO alone controls = 100% viability, Trial 1, read-out: Trial 1 SKOV-3 (viability)
[6] = SK-OV-3, 48 hours, MTT, DMSO alone controls = 100% viability, Trial 2, read-out: Trial 2 SKOV-3 (viability)
[7] = SK-OV-3, average of Trial 1 and Trial 2, 48 hours, read-out: Average SKOV3 (viability)

SMILES | IC50 (PI 3-K alpha) [µM] | Anti-proliferative effects on tumor cells altered in PI 3-K/PTEN [1] | IC50 [1] [µM] | viability at 1 µM (OVCAR3 cells; [2]) [%] | viability at 1 µM (OVCAR3 cells; [3]) [%] | viability at 1 µM (OVCAR3 cells; [4]) [%] | viability at 1 µM (SKOV3 cells; [5]) [%] | viability at 1 µM (SKOV3 cells; [6]) [%] | viability at 1 µM (SKOV3 cells; [7]) [%]
CC1(C)CC(=O)C2=C(C1)Nc1c(c(C(C)(C)C)nn1C(C)(C)C)C2c1ccc(OCc2ccccc2)c(OCc2ccccc2)c1 (stereo not drawn) [Compound 963985] | 0.5 | Yes | 1 | – | – | – | – | – | –
Cc1ccc(C2C3=C(CC(C)(C)CC3=O)Nc3c2c(C(C)(C)C)nn3-c2ccc(C)cc2)cc1 (stereo not drawn) [Compound 964028, 3-t-butyl-4-(4-methylphenyl)-7,7-dimethyl-1-(4-methylphenyl)-4,7,8,9-tetrahydro-1H-pyrazolo[3,4-b]quinolin-5(6H)-one] | 1 | Yes | 10 | 42 | 45.4 | 43.7 | 100 | 99.1 | 99.5
COc1ccc(-n2nc(C(C)(C)C)c3c2NC2=C(C(=O)CC(C)(C)C2)C3c2ccccc2Cl)cc1 (stereo not drawn) [Compound 964076, 3-t-butyl-4-(2-chlorophenyl)-7,7-dimethyl-1-(4-methoxyphenyl)-4,7,8,9-tetrahydro-1H-pyrazolo[3,4-b]quinolin-5(6H)-one] | 3 | Yes | 10 | 41 | 53.2 | 47.1 | 100 | 92.9 | 96.5
COc1ccc(OC)c(C2C3=C(CC(C)(C)CC3=O)Nc3c2c(C(C)(C)C)nn3-c2ccc(C)cc2C)c1 (stereo not drawn) [Compound 964232] | 5 | Yes | < 20 | 45 | 71 | 58 | 98 | 100 | 99
COc1ccccc1C1C2=C(CC(C)(C)CC2=O)Nc2c1c(C(C)(C)C)nn2-c1ccc(Cl)c(C)c1 (stereo not drawn) [Compound 964247] | 7 | Yes | < 20 | 42 | 43.7 | 42.9 | 100 | 100 | 100
CC1(C)CC(=O)C2=C(C1)Nc1c(c(C(C)(C)C)nn1-c1ccc(Cl)c(Cl)c1)C2c1cccc(OCc2ccccc2)c1 (stereo not drawn) [Compound 964260] | 8 | Yes | < 20 | 41 | 53 | 47 | 93 | 85 | 89
CC1(C)CC(=O)C2=C(C1)Nc1c(c(-c3ccccc3)nn1-c1cccc(F)c1)C2c1ccc(C(F)(F)F)cc1 (stereo not drawn) [Compound 964661] | 8 | Yes | < 20 | 36 | 58.9 | 47.5 | 99 | 77.1 | 88
